Data from PubChem BioAssay (NCI).
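All cell lines were grown in 96-well plates and treated with compound for 48 hours. The concentration for 50% growth inhibition is given as GI50. TGI: total growth inhibition.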

Columns and labels:
Test in all cases: growth of human tumour cells (NCI), 48 h
UACC-257 melanoma = tested on: UACC-257 melanoma
DU-145 prostate = tested on: DU-145 prostate
NCI-H23 lung = tested on: NCI-H23 lung
SNB-75 CNS = tested on: SNB-75 CNS
HCT-15 colon = tested on: HCT-15 colon
MDA-MB-231 breast = tested on: MDA-MB-231 breast
HL-60(TB) leukemia = tested on: HL-60(TB) leukemia
MOLT-4 leukemia = tested on: MOLT-4 leukemia
SF-268 CNS = tested on: SF-268 CNS
COLO 205 colon = tested on: COLO 205 colon

SMILES	TGI (UACC-257 melanoma) [µM]	TGI (DU-145 prostate) [µM]	TGI (NCI-H23 lung) [µM]	TGI (SNB-75 CNS) [µM]	TGI (HCT-15 colon) [µM]	TGI (MDA-MB-231 breast) [µM]	TGI (HL-60(TB) leukemia) [µM]	TGI (MOLT-4 leukemia) [µM]	TGI (SF-268 CNS) [µM]	TGI (COLO 205 colon) [µM]	GI50 (DU-145 prostate) [µM]
CCOC(=O)C1CCCN1C(=O)c1ccccc1Cl (centres undefined)	> 100	> 100	> 100	> 100	> 100	> 100	> 100	> 100	> 100	–	–
CC(C)N1[C@@H]2CCCC[C@H]2N(C(C)C)[P+]1=O	> 100	> 100	> 100	> 100	> 100	–	–	> 100	> 100	> 100	–
Cc1cc(O)c(C(C)C)cc1C(=S)Nc1ccc(Cl)cc1	23.8	31.5	17.7	–	25.1	–	24.9	19	19.7	31.5	–
CSc1nc(-c2ccccc2)nc(=[N+]2CCOCC2)s1	–	–	> 100	> 100	> 100	–	> 100	> 100	> 100	98.7	–
CC(C)(C)CC(C)(C)NCC(O)COc1ccc(C(C)(C)c2ccc(OCC(O)CNC(C)(C)CC(C)(C)C)cc2)cc1 (centres undefined)	–	2.75	3.14	2.79	2.69	–	–	1.26	3.06	1.47	1.39
CCN(CC)C(=O)c1cc([N+](=O)[O-])c(=O)n2c1[nH]c1ccccc12	> 100	> 100	> 100	> 100	–	> 100	> 100	> 100	> 100	> 100	–
CCOC(=O)Cc1cc(=O)[nH]c(-n2[nH]c(C)c(CCO)c2=O)n1	> 100	> 100	> 100	–	> 100	> 100	> 100	–	> 100	> 100	–
C=C(Cl)CN1c2ccccc2C=Cc2ccccc21	49.8	> 100	> 100	61.9	> 100	35.7	–	–	> 100	30.4	–
COc1ccc(C2=Nc3c(nc(SC)[nH]c3=O)NC(c3ccccc3)C2)cc1 (centres undefined)	57.4	82.7	45.6	48.8	–	30	42.5	57.1	–	34.8	–
Cc1ccc(S(=O)(=O)N/N=C\c2c3ccccc3[n+](C)c3ccccc23)cc1	> 100	–	> 100	46	97.4	–	59.6	53.3	> 100	–	–
Clc1ncnc2c1nc(C#Cc1ccccc1)n2C1CCCCO1 (centres undefined)	6.01	2.79	4.15	7.78	–	12.7	6.94	8.32	6.22	2.97	–
CCCCCCCCCCOc1ccc(N=Nc2nnc(-c3ccc(OCCCCC)cc3)s2)cc1	> 100	> 100	> 100	–	> 100	> 100	–	> 100	> 100	> 100	–
O=C1Nc2ccccc2SC1=C(C(=O)c1ccccc1)C(=O)c1ccccc1	> 88	> 100	> 90.8	> 94.6	> 100	> 92.8	0.82	–	> 100	> 88	–
CSc1c(C)n([O-])c2cc(Cl)c(Cl)cc2[n+]1=O	34.8	30.9	31.8	> 69.4	49.6	37.9	–	5.43	36.6	41.7	–
COC(=N)CCCl	> 100	> 100	> 100	> 100	> 100	–	> 100	> 100	> 100	> 100	–
COc1cc(-c2nc(SC)nc3c2CCc2ccccc2-3)cc(OC)c1OC	> 100	> 100	> 100	> 100	–	> 100	> 100	96.2	> 100	> 100	–
Cc1ccc2c(=O)cc(-c3cccc(F)c3)[nH]c2n1	> 100	1.23	0.739	–	–	1.11	0.0621	> 100	> 100	0.0567	–
CN1C/C(=C\c2cccs2)C(=O)/C(=C/c2cccs2)C1	> 100	> 100	> 100	–	> 100	48.3	–	47.2	> 100	91.7	–
O=C(NNc1nc(-c2ccccc2)cs1)Nc1ccccc1	59.3	89.1	41.2	69.3	74.4	54.4	–	> 100	80.9	56.4	–
CCCCOc1ccc(S(=O)(=O)/N=C(\NO)Nc2ccc(Cl)cc2)cc1	30.4	30.1	29.4	–	30.4	33.9	–	31.8	33.3	35.7	–
CCOC(=O)CCC(NC(=O)c1ccc(Nc2nc3ccccc3nc2C(=O)OCC)s1)C(=O)OCC (centres undefined)	> 100	> 100	–	> 100	> 100	> 100	> 100	> 100	> 100	> 100	–
Nc1ncc2c(n1)-c1ccccc1OC2	> 100	–	> 100	94.4	> 100	–	> 100	> 100	> 100	> 100	–
NS(=O)(=O)c1ccc(NCc2nc3ccccc3[nH]2)cc1	> 100	> 100	> 100	> 100	> 100	> 100	–	–	> 100	> 100	–
CCN(CCC#N)C(=O)Nc1ccccc1	> 100	> 100	> 100	> 100	> 100	> 100	–	> 100	–	> 100	–
